{
  "source": "patent US8541670B2",
  "about": "“Compositions and methods for inhibiting tumor cell growth” (priority 2007, dated 2013)",
  "key": {"AKT2": {"target": "AKT2 (Homo sapiens, UniProt P31751)", "sequence (P31751 whole entry, species assumed)": "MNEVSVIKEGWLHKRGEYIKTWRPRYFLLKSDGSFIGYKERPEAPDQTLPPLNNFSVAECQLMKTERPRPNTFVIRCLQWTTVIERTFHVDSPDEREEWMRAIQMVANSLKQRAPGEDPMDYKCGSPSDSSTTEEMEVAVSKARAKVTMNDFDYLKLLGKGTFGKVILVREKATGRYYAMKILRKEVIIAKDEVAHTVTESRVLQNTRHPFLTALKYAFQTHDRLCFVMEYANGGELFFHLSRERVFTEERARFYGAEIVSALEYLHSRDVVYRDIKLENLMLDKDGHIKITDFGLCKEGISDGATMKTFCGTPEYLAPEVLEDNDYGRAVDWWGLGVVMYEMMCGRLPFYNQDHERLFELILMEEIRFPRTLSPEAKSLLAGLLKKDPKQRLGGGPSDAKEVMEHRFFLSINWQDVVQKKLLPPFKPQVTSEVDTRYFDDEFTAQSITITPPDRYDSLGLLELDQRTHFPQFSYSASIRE", "assay": "In vitro kinase assay AKT2", "format": "biochemical", "details": "ten times higher concentration than 0.1 μM", "experimental": "(§1) As a specific substrate, the phosphorylation level of GSK-3[…] at Ser-9 was also evaluated. […] The decrease was specific to the AKT phosphorylation site on GSK-3[…] at Ser-9, since a change in the phosphorylation level of GSK-3[…] at Tyr-216 or GSK-3[…] at Tyr-279 was not observed. Moreover, the in vivo reduction of the phosphorylation of AKT substrates was more obvious at the injection site, since a significant change in the phosphorylation of AKT substrates in the frontal cortex or cerebellum between the two hemispheres was not observed. […] To test the specificity/selectivity of ZaTa as the inhibitor of AKT1 versus the other major kinases, a series of in vitro kinase assays was performed at IC50 for AKT1 and at ten times higher concentrations. A panel of the following 32 kinases was first tested in vitro using the active form of each kinase and a specific substrate: AKT2, AKT3, PKA, PKC[…], PKC, PI3K[…], PI3K[…], PI3K, SGK, PAK2, PAK3, SAPK2/p38, Abl, CaMKII, CDK1/cyclinB, CDK5/p35, CK1, CK2, CSK, GSK3[…], GSK3[…], JNK1[…]1, MAPK1, p70S6K, PDGFR[…], PDGFR[…], PDK1, PKG1[…], TrkB, JAK2, JAK3, and Syk. […] However, at ten times higher concentration, ZaTa inhibited AKT2 (63%), PI3K[…] (72%), p70S6K (64%), SGK (73%), PAK3 (83%), JAK3 (79%), TrkB (84%), and Abl (42%). […]"}, "TrkB [1]": {"target": "T1, TrkB (Homo sapiens, UniProt Q16620)", "assay": "In vitro kinase assay TrkB", "format": "biochemical", "details": "ten times higher concentration than 0.1 μM", "experimental": "as §1"}, "Abl": {"target": "Abl (Homo sapiens, UniProt P00519)", "sequence (P00519 whole entry, species assumed)": "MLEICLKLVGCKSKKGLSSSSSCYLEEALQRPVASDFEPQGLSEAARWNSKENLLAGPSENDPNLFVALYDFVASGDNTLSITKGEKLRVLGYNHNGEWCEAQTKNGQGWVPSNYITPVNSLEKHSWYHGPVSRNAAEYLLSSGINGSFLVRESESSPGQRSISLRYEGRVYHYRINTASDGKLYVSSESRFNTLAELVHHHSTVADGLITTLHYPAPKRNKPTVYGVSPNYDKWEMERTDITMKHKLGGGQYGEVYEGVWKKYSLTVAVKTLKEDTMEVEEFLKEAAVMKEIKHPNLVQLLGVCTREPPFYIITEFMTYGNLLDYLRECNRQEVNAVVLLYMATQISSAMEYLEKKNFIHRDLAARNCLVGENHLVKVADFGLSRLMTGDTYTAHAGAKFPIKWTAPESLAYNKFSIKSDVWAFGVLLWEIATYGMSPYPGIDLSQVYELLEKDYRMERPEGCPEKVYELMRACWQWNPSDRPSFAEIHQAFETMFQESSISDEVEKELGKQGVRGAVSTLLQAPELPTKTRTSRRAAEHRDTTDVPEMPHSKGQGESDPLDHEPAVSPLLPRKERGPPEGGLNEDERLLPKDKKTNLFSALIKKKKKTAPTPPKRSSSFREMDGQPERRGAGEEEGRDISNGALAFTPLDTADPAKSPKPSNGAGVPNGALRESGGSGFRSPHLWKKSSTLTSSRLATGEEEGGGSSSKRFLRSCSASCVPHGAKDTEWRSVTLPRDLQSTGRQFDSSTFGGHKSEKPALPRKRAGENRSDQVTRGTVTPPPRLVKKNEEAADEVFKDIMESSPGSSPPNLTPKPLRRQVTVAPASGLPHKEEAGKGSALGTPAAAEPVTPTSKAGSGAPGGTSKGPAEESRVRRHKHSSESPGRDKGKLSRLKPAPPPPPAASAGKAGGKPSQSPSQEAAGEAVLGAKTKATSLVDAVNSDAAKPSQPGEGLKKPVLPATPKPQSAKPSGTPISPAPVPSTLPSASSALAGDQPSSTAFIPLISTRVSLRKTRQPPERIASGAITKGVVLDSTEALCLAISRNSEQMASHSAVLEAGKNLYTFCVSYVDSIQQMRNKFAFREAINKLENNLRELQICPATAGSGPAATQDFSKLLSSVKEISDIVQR", "assay": "In vitro kinase assay Abl", "format": "biochemical", "details": "ten times higher concentration than 0.1 μM", "experimental": "as §1"}, "TrkB [2]": {"target": "T1, TrkB", "assay": "Cell-based kinase assay, phosphorylation of intracellular substrate (Tyr-783 PLC)", "experimental": "As a specific substrate, the phosphorylation level of GSK-3[…] at Ser-9 was also evaluated. […] The decrease was specific to the AKT phosphorylation site on GSK-3[…] at Ser-9, since a change in the phosphorylation level of GSK-3[…] at Tyr-216 or GSK-3[…] at Tyr-279 was not observed. Moreover, the in vivo reduction of the phosphorylation of AKT substrates was more obvious at the injection site, since a significant change in the phosphorylation of AKT substrates in the frontal cortex or cerebellum between the two hemispheres was not observed. […] To test the specificity/selectivity of ZaTa as the inhibitor of AKT1 versus the other major kinases, a series of in vitro kinase assays was performed at IC50 for AKT1 and at ten times higher concentrations. […]\nPhosphorylation sites for kinases analyzed herein included Ser-235/236 S6 (a substrate for p70S6K), Tyr-207 CRKL (a substrate for Abl; Zipfel, et al. (2004) supra), Ser-241 PDK1 (a substrate for PI3K), Tyr-1022/1023 JAK1 (a substrate for JAK3; Wang, et al. (2003) supra), Ser-421 Huntingtin (a substrate for SGK; Rangone, et al. (2004) supra), Tyr-783 PLC (a substrate for TrkB; Middlemas, et al. (1994) supra), and Ser-338 cRaf (a substrate for PAK3; King, et al. (1998) supra)."}, "olfactory bulb cells": {"test_system": "olfactory bulb cells", "assay": "In vivo TUNEL in olfactory bulb after repeated intranasal delivery", "set-up": "species or system C57BL/6 mice", "details": "repeated intranasal treatment for three days", "text": "To confirm the apoptotic inducing effect of ZaTa in vivo, ZaTa was delivered to the mouse brain via the nasal cavity, a minimally invasive procedure compared to the stereotactic surgery. Intranasal delivery of compounds into the brain is an efficient and effective way for local delivery of compounds, without the need for passing the blood brain barriers, the major obstacle for studying the effect of different inhibitors/activators in CNS (Vyas, et al. (2005) Curr. Drug Deliv. 2:165-175; Hrafnkelsdottir, et al. (2005) Biol. Pharm. Bull. 28:1038-1042). […] This was visualized by double labeling of the brain sections with fluorescent TUNEL and a nuclear marker.\nDepending on the intended use, a pharmaceutical composition of the invention can be administered by any suitable means, including parenteral injection (such as intraperitoneal, subcutaneous, intratumoral or intramuscular injection), orally or by topical application (e.g., transdermal or via a mucosal surface). By pharmaceutically acceptable formulation is meant, a composition or formulation that allows for the effective distribution of the nucleic acid molecules of the instant invention in the physical location most suitable for their desired activity. […]"}},
  "note": "Where no end group is shown, it is not given here. red fluorescent dye = not defined here",
  "data": [
    {"substance": "AKRVKGRTWTLCGTPEY [ZaTa]", "values": [
      {"measurement": "inhibition of AKT2", "setting": "AKT2", "value": 63, "unit": "%"},
      {"measurement": "inhibition of TrkB", "setting": "TrkB [1]", "value": 84, "unit": "%"},
      {"measurement": "inhibition of Abl", "setting": "Abl", "value": 42, "unit": "%"}
    ]},
    {"substance": "labeled ZaTa: ZaTa peptide labeled with a red fluorescent dye at its N-terminus ({red fluorescent dye}-AKRVKGRTWTLCGTPEY; reading uncertain)", "values": [
      {"measurement": "inhibition of TrkB in cells", "setting": "TrkB [2]", "value": "did not cause inhibition"},
      {"measurement": "number of apoptotic cells in olfactory bulb", "setting": "olfactory bulb cells", "value": "significantly increased"}
    ]}
  ]
}
